Where two headings read alike, the source gives them in different places.
Key:
plasma proteins [1] = assay: In vitro plasma protein binding, plasma from 5 healthy men; assay type: in vitro ADME, human
Description: The value of the plasma protein binding of tipifarnib from the ex vivo measurement on cancer subjects in this trial is very close to that (99.22% bound) obtained from an in vitro experiment with the plasma samples from 5 healthy men. […]

human hepatocytes = conditions: in vitro; cited from earlier work
CYP3A4 = CYP3A4 (Homo sapiens, UniProt P08684); conditions: compared to CYP2C19, CYP2A6, CYP2D6, CYP2C8/9/10; cited from earlier work
[2] = oral administration, cited from earlier work
advanced solid tumor = assay: Clinical assessment: efficacy / tumor response; assay type: in vivo, human
Description: (§1) Complete patient history was taken, and a physical examination (including vital signs), hematological tests, and clinical chemistry tests were performed at baseline and during treatment. To assess cardiovascular safety, twelve-lead E.C.G.s were recorded at screening, during Cycle 1 and at the end of therapy. Although objective tumor response was not the primary objective of this study, an attempt was made to obtain appropriate measurements to assess response. All adverse events and clinically relevant laboratory abnormalities were graded according to Common Toxicity Criteria (CTC version 2.0)

[3] = cited from earlier work
[4] = oral 50- to 500-mg b.i.d.; cited from earlier work
plasma proteins [5] = assay: Tipifarnib protein binding analysis, equilibrium dialysis of patient plasma (ex vivo); assay type: in vitro ADME, human
Description: Tipifarnib was specifically labeled with [^14C] at the asymmetric carbon atom. A 7-mL blood sample was taken from 24 patients at 4 hours after the start of the continuous intravenous infusion of tipifarnib on Day 4. The plasma samples were fortified with [^14C]-tipifarnib at 500 ng/ml. The fortified plasma samples were subjected to equilibrium dialysis against a 0.067 M phosphate buffer, pH 7.17 at 37° C. for 4 hours in a Dianorm system with identical macro-1 Teflon cells and Diachema 10.17 dialysis membranes (MW cut-off 10,000). Radioactivity levels were measured in duplicate 100-μl aliquots of the fortified plasma before and after equilibrium dialysis, and in 1000-μl duplicate aliquots of the contents of buffer compartments of the dialysis cells admixed with methanol after dialysis in a Packard Tri-Carb 1900 TR liquid scintillation spectrometer. The total protein concentration was determined with a colorimetric biureet method, kit Roche Diagnostics 1929917. The albumin concentration was determined with a colorimetric bromocresol green method kit Roche Diagnostics 1970909. The α1-acid glycoprotein concentration was determined with an immuno-turbidimetric method, kit Roche Diagnostics 1557602. All these tests were performed on a Roche Hitachi Modular analyser. […]

[6] = target: human farnesyltransferase (FTase) (Homo sapiens, UniProt P49354+P49356); conditions: in vitro and in vivo; cited from earlier work
[7] = Solubility and hydrolytic stability of tipifarnib in water; assay type: physicochemical
Description: Tipifarnib is a base with very good water solubility at acidic pH. It hydrolyzes to R110127, wherein the amine functionality is replaced by a hydroxy functionality. […] R110127 has the following structure: [drawing 2]
[…] is added to Formulation 1 to solubilize tipifarnib when it is reconstituted with Formulation 2. The pH value of the reconstituted solution is ˜4.5. At this pH value tipifarnib precipitates if no Hydroxypropyl-β-cyclodextrin is present. The risk of local irritation during infusion into a peripheral vein (arm) is at an acceptable level at this pH value.

[8] = Clinical assessment: toxicity (CTC version 2.0), dose-limiting toxicity; assay type: in vivo, human
Description: The second and third subjects in the cohort were to be started only when the first subject completed the first intravenous and the oral treatment (i.e., 8-day period) without a dose-limiting toxicity (DLT). If a DLT occurred in 1 of 3 subjects of either the first or the second cohort, 3 supplementary subjects were to be added to that cohort. If more than 1 subject experienced DLT (either in the first 3 subjects or in the extended cohort of 6 subjects), dose escalation was to be terminated, and other subjects in that cohort had to complete their therapy at the same dose.
as §1

[9] = Plasma pharmacokinetics of tipifarnib after oral, 2-hour i.v. and continuous i.v. administration in cancer patients; assay type: in vivo, human; conditions: for systemic exposure (AUC0-10h) lower relative to 200 mg oral dose: Day 4, cohort 1 (3 subjects); for systemic exposure lower relative to 200 mg oral dose: cohort 2 (3 subjects); for bioavailability: oral, dose-normalized AUC0-10h, fed, read-out: mean absolute bioavailability of the oral tablet; for bioavailability / Tmax: 200 mg; for Tmax: po
Description: The objective of the first (dose-determination) phase of the study was to identify an intravenous regimen that was well tolerated. It was expected that this regimen would be equivalent to 50% -60% of a clinically relevant oral dose (200 mg), based on a prior pilot determination of absolute bioavailability in healthy male volunteers. A first cohort of 3 subjects received the following uninterrupted 4-day consecutive treatments of tipifarnib: 30 mg as a 2-hour intravenous infusion b.i.d. on Day 1-4, followed by 200 mg as oral administration b.i.d. on Day 5-8, followed by 60 mg per day as a continuous intravenous infusion on Day 9-12. Similarly, a second cohort of 3 subjects received similar 4-day regimens of tipifarnib: 60 mg as a 2-hour intravenous infusion b.i.d., followed by 200 mg as oral administration b.i.d., followed by 120 mg per day as a continuous intravenous infusion. There was no washout period between each of the 4-day oral or i.v. treatments described.
The second (i.v.-oral bridging) phase of the study was completed in separate group of patients. Systemic exposure to tipifarnib following the selected 2-hour and continuous intravenous regimens (from the previous dose-determination phase) was compared to exposure after a 200-mg b.i.d. oral regimen. The bridging phase was initiated when at least 2 subjects of the second cohort of the dose-determination phase were observed without DLT until Day 21. A total of 24 subjects were randomly assigned in a 1:1 ratio to one of two treatment sequences at the chosen intravenous regimens, in order to account for potential sequence-effects.
Sequence 1: 100 mg b.i.d. administered as a 2-hour intravenous infusion on Days 1-4, followed by 200 mg oral tablets b.i.d. on Days 5-8, then 200 mg/day administered as a continuous 4-day intravenous infusion on Days 9-12.
Sequence 2: 200 mg/day administered as a continuous 4-day intravenous infusion on Days 1-4, followed by 200 mg oral tablets b.i.d. on Days 5-8, then 100 mg b.i.d. administered as a 2-hour intravenous infusion on Days 9-12.
In both the dose-determination and the bridging phases, pharmacokinetic sampling was performed during a 10-hour period from the start of the morning dose on Day 4 of each treatment. Whole blood samples were taken immediately before, and 0.5, 1, 2, 3, 4, 6, 8, and 10 hours after oral administration. For 2-hour intravenous infusion, blood samples were taken immediately before, and 1, 2 (i.e. just before the end of the infusion), 2.25, 3, 4, 6, 8, and 10 hours after dosing. Blood samples were taken immediately before, and 2, 4, 6, 8, and 10 hours after the start of the continuous intravenous infusion.
A minimum of 7 mL of blood for each PK sample was collected. Whole blood samples were immediately placed on ice and centrifuged within 2 hours after collection (10 min, 1000×g). Separated plasma was frozen immediately at ≦−18° C. until assayed.
Plasma samples were thawed at room temperature, and individual sample was analyzed for tipifarnib using a previous published method. To 1-ml aliquots of human plasma, 200 ng of the internal standard (R121550, a structural analog) was spiked. After adding 1 ml of NaOH (0.1M), the samples were extracted twice with 4 ml of heptane containing 10% of isoamylalcohol. The combined organic phases were back-extracted with 2 ml of HCl (2M). After alkalization with concentrated ammonia, the aqueous phase was extracted once with 5 ml of heptane containing 5% of isoamylalcohol. This extract was evaporated under nitrogen at 65° C. and the residue dissolved in 100 microliters of injection solvent (Ammoniumacetate 0.01M/acetonitile/methanol; 50/25/25). A 15 μl extract was injected into an HPLC with UV detection (Agilent) at a wavelength of 240 nm. Separation was performed on a 10 cm×4.6 mm chromatographic column, packed with 3 μm C 18 BDS-Hypersil (Alltech). […]

[10] = 2-hour i.v. infusion 100 mg b.i.d. versus oral 200 mg b.i.d.

Chain of CYP3A4 (P08684 whole entry): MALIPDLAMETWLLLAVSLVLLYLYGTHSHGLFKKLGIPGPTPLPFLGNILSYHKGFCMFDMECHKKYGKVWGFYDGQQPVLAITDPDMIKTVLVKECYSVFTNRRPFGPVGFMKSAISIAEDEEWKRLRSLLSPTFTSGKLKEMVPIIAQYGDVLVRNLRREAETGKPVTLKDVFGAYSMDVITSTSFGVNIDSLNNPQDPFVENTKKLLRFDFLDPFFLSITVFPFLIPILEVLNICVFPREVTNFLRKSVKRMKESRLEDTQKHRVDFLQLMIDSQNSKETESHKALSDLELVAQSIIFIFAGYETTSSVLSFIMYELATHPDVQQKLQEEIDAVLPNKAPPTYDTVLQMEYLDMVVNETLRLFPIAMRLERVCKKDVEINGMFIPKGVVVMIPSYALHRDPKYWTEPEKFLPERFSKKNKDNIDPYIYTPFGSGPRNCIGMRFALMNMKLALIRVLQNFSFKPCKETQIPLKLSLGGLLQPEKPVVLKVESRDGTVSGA

fraction unbound at 4 h, 1000 ng/mL (plasma proteins [1]; male, human, pH 7.17, blank plasma fortified with 14C-tipifarnib at 1000 ng/mL, read-out: plasma protein binding (bound) (converted)): 0.0078 | mean free (unbound) fraction (plasma proteins [5]; plasma drawn 4 hours after start of continuous i.v. infusion, Day 4): 0.62% | water solubility ([7]; acidic pH): very good | solubility in reconstituted solution ([7]; pH ~4.5, without hydroxypropyl-β-cyclodextrin): precipitates | systemic exposure (AUC0-10h) lower relative to 200 mg oral dose ([9]; 30 mg b.i.d. 2-hour intravenous infusion): approximately 64% | systemic exposure lower relative to 200 mg oral dose ([9]; 60 mg b.i.d. 2-hour intravenous infusion): approximately 47% | systemic exposure (AUC0-10h) lower relative to 200 mg oral dose ([9]; 60 mg per day continuous intravenous infusion): ~59% | systemic exposure lower relative to 200 mg oral dose ([9]; 120 mg per day continuous infusion): ~46% | AUC0-10h higher than after oral administration [9, 10]: 19.3% | Cmax higher than after oral administration [9, 10]: 48.0% | bioavailability ([9]; human, plasma, oral versus 2-hour i.v.): 46.3% | bioavailability ([9]; human, plasma, oral versus continuous intravenous infusion): 40.9% | Tmax ([9]; human, plasma, oral 200 mg b.i.d. for 4 days, read-out: time of maximum plasma concentration (tmax)): ~2 h | Tmax ([9]; human, plasma, oral 200 mg b.i.d., 29 subjects, read-out: range of tmax): 0.5 to 3 h | AUC(0-t) ([9]; human, plasma, oral 200 mg b.i.d., 2-hour i.v. 100 mg b.i.d., continuous i.v. 200 mg/day, read-out: range of mean AUC0-10h values across the 3 treatments): 3990 to 4490 ng·h/mL | AUC(0-t) ([9]; human, plasma, oral 200 mg b.i.d., Day 4, n=24, read-out: arithmetic mean AUC0-10h (±SD)): 3990 ± 1670 ng·h/mL | Cmax ([9]; human, plasma, oral 200 mg b.i.d., Day 4, n=24, read-out: arithmetic mean Cmax (±SD)): 994 ± 487 ng/mL | arithmetic mean AUC0-10h (±SD) ([9]; oral 200 mg b.i.d., Day 4, n=24): 3990 ng·h/mL
Compound: Cn1cncc1[C@@](N)(c1ccc(Cl)cc1)c1ccc2c(c1)c(-c1cccc(Cl)c1)cc(=O)n2C [tipifarnib]
dependence of in vitro plasma protein binding on total tipifarnib concentration (plasma proteins [1]; range 100 to 5000 ng/mL): independent of the total tipifarnib concentrations | metabolism in human hepatocytes (human hepatocytes): undergoes direct glucoronidation | CYP450 metabolic pathway (CYP3A4): CYP3A4 was a predominant metabolic pathway | concentrations of unchanged tipifarnib lower than total radioactivity concentrations ([2]; deproteinized samples): approximately 8 times | concentrations of unchanged tipifarnib lower than total radioactivity concentrations ([2]; nonprecipitated samples): 42 times | oral dose recovered in faeces as tipifarnib [2]: less than 7% | unchanged drug excreted in the urine [2]: No unchanged drug was excreted in the urine | objective tumor responses (advanced solid tumor; 31 subjects evaluable): No objective tumor responses were observed | stable disease for at least 6 months (advanced solid tumor; 31 subjects evaluable): 14 subjects | duration of hematological improvement (durable increase in hemoglobin) (advanced solid tumor; one subject with MDS): 8 months | mean AUC0-10h ([3]; 150 mg orally twice daily): 2495 ng·h/mL | mean Cmax ([3]; 150 mg orally twice daily): 443 ng/mL | mean AUC0-10h ([3]; 300 mg orally twice daily): 4674 ng·h/mL | mean Cmax ([3]; 300 mg orally twice daily): 974 ng/mL | peak concentration range [4]: 68 to 1458 ng/mL | dependence of unbound fraction on total drug plasma concentration (plasma proteins [5]; range 211 ng/mL to 812 ng/mL): independent of total drug plasma concentration | inhibition of human farnesyltransferase (FTase) [6]: potent and selective nonpeptidomimetic competitive inhibitor | rate of hydrolytic degradation to R110127 ([7]; aqueous): lowest at acidic condition but still very fast | febrile neutropenia, subjects ([8]; 1 subject): 3% | Grade 3 or 4 drug-related neutropenia, patients ([8]; 9/30 patients): 30% | phlebitis ([8]; IV bolus via peripheral venous access, not observed via central vein): 3 subjects | dose limiting toxicity ([8]; cohort 1: 30 mg b.i.d. 2-hour i.v., 60 mg per day continuous i.v.): No dose limiting toxicity | dose limiting toxicity (DLT) ([8]; cohort 2: 60 mg b.i.d. 2-hour i.v., 120 mg per day continuous i.v.): no DLT was observed | adverse events associated with intravenous administration ([8]; intravenous tipifarnib): No unusual adverse events | drug-related anorexia ([8]; mainly grade 1): 20% | drug-related diarrhea ([8]; mainly grade 1): 13% | drug-related fatigue ([8]; mainly grade 1): 60% | drug-related nausea ([8]; mainly grade 1): 40% | drug-related vomiting ([8]; mainly grade 1): 17%
